Counter-ions that a name gives are not always drawn. Like-named read-outs stand apart in the source and are kept apart here.
Biological target: T1, human β-Secretase (soluble part, AA1-AA460; sBACE-Fc) (Homo sapiens, UniProt P56817)
T1 construct: The soluble part of the human β-Secretase (AA1-AA460) was cloned into the ASP2-Fc10-1-IRES-GFP-neoK mammalian expression vector; made in house
Test: TR-FRET assay
Type: biochemical
Conditions: substrate (Europium)CEVNLDAEFK(Qsy7) 100 nM, pH 4.5, 15 min at RT
Description: The enzyme used in the IGEN Cleavage-, Fluorescent-, TR-FRET- and BiaCore assays is described as follows:
The soluble part of the human β-Secretase (AA1-AA460) was cloned into the ASP2-Fc10-1-IRES-GFP-neoK mammalian expression vector. The gene was fused to the Fc domain of IgG1 (affinity tag) and stably cloned into HEK 293 cells. Purified sBACE-Fc is stored in Tris buffer, pH 9.2 and has a purity of 95%.
Enzyme was diluted to 6 μg/mL and the substrate (Europium)[…](Qsy7) to 200 nM in reaction buffer (NaAcetate, chaps, triton x-100, EDTA pH 4.5). Compounds were diluted to the desired concentration in dimethyl sulfoxide (final dimethyl sulfoxide concentration in assay is 5%). […] Enzyme (9 μL) and 1 μL of compound in dimethyl sulfoxide was added to the plate, mixed and pre-incubated for 10 min. Substrate (10 μL) was added and the reaction proceeded in the dark for 15 min at RT. The reaction was stopped with the addition of 7 μL NaAcetate, pH 9. The fluorescence of the product was measured on a Victor II plate reader with an excitation wavelength of 340 nm and an emission wavelength of 615 nm. […] The dimethyl sulfoxide control defined the 100% activity level and 0% activity was defined by exclusion of the enzyme (using reaction buffer instead).

[1] = read-out: IC50 (nM) in TR-FRET assay

T1 sequence (P56817 22-460): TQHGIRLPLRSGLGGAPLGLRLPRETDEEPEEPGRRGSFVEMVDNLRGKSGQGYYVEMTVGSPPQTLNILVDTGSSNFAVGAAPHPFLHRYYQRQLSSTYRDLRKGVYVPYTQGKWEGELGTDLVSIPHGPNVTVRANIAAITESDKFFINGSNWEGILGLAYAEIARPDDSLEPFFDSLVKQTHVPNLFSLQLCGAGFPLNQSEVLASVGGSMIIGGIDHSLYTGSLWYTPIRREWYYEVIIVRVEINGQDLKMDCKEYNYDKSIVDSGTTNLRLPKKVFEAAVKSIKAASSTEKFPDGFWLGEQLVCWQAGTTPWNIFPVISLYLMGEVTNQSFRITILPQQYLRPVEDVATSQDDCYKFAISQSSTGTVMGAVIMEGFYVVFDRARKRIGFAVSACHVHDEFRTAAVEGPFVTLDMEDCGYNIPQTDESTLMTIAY

| IC50 [1] [nM] | IC50 (IC50 (nM) in TR-FRET assay) [nM] | SMILES |
| --- | --- | --- |
| 179 | – | COc1cc(Cl)cc(-c2cc(C3(c4cccc(OS(C)(=O)=O)c4)N=C(N)N(C)C3=O)ccc2F)c1 (centres unmarked) [Example 92, 3-[2-Amino-4-(3′-chloro-6-fluoro-5′-methoxybiphenyl-3-yl)-1-methyl-5-oxo-4,5-dihydro-1H-imidazol-4-yl]phenyl methanesulfonate] |
| 41 | – | COc1cc(C#N)cc(-c2cc(C3(c4ccc(OS(C)(=O)=O)cc4)N=C(N)N(C)C3=O)ccc2F)c1 (centres unmarked) [Example 71, 4-[2-Amino-4-(3′-cyano-6-fluoro-5′-methoxybiphenyl-3-yl)-1-methyl-5-oxo-4,5-dihydro-1H-imidazol-4-yl]phenyl methanesulfonate hydrochloride] |
| 104 | – | COc1cc(OS(C)(=O)=O)cc(-c2cc(C3(c4ccnc(C)c4)N=C(N)N(C)C3=O)ccc2F)c1 (centres unmarked) [Example 211, 5′-[2-Amino-1-methyl-4-(2-methylpyridin-4-yl)-5-oxo-4,5-dihydro-1H-imidazol-4-yl]-2′-fluoro-5-methoxybiphenyl-3-yl methanesulfonate hydrocloride] |
| 321 | – | CCCS(=O)(=O)Oc1cccc(C2(c3ccc(F)c(-c4cncnc4)c3)N=C(N)N(C)C2=O)c1 (centres unmarked) [Example 102, 3-[2-Amino-4-(4-fluoro-3-pyrimidin-5-ylphenyl)-1-methyl-5-oxo-4,5-dihydro-1H-imidazol-4-yl]phenyl propane-1-sulfonate] |
| 1020 | – | CN1C(=O)C(c2ccc(OS(=O)(=O)c3cn(C)cn3)cc2)(c2ccc(F)c(-c3cccnc3)c2)N=C1N (centres unmarked) [Example 287, 4-[2-Amino-4-(4-fluoro-3-pyridin-3-ylphenyl)-1-methyl-5-oxo-4,5-dihydro-1H-imidazol-4-yl]phenyl 1-methyl-1H-imidazole-4-sulfonate] |
| 60 | – | CN1C(=O)C(c2ccc(OS(=O)(=O)c3ccc4c(c3)oc(=O)n4C)cc2)(c2ccc(F)c(-c3cccnc3)c2)N=C1N (centres unmarked) [Example 284, 4-[2-Amino-4-(4-fluoro-3-pyridin-3-ylphenyl)-1-methyl-5-oxo-4,5-dihydro-1H-imidazol-4-yl]phenyl 3-methyl-2-oxo-2,3-dihydro-1,3-benzoxazole-6-sulfonate 0.5acetate] |
| 387 | – | CN1C(=O)C(c2ccc(OS(C)(=O)=O)cc2)(c2ccnc(-c3cccnc3F)c2)N=C1N (centres unmarked) [Example 29, 4-[2-Amino-4-(2′-fluoro-2,3′-bipyridin-4-yl)-1-methyl-5-oxo-4,5-dihydro-1H-imidazol-4-yl]phenyl methanesulfonate 0.25 acetate] |
| 395 | – | CCN1C(=O)C(c2ccc(OS(C)(=O)=O)cc2)(c2ccc(F)c(-c3cccc(OC)c3)c2)N=C1N (centres unmarked) [Example 163, 4-[2-Amino-4-(6-fluoro-3′-methoxybiphenyl-3-yl)-1-ethyl-5-oxo-4,5-dihydro-1H-imidazol-4-yl]phenyl methanesulfonate 0.25acetate] |
| 59 | – | COc1ccc(C2(c3ccc(F)c(-c4cncnc4)c3)N=C(N)N(C)C2=O)cc1OS(=O)(=O)C(F)(F)F (centres unmarked) [Example 14, 5-[2-Amino-4-(4-fluoro-3-pyrimidin-5-ylphenyl)-1-methyl-5-oxo-4,5-dihydro-[H-imidazol-4-yl]-2-methoxyphenyl trifluoromethanesulfonate 0.5 acetate] |
| – | 311 | COc1cc(Cl)cc(-c2cc(C3(c4cccc(OS(=O)(=O)C(C)C)c4)N=C(N)N(C)C3=O)ccc2F)c1 (centres unmarked) [Example 107, 3-[2-Amino-4-(3′-chloro-6-fluoro-5′-methoxybiphenyl-3-yl)-1-methyl-5-oxo-4,5-dihydro-1H-imidazol-4-yl]phenyl propane-2-sulfonate] |

| SMILES | IC50 [1] [nM] | IC50 (IC50 (nM) in TR-FRET assay) [nM] |
| --- | --- | --- |
| CN1C(=O)C(c2ccc(OC(F)(F)F)cc2)(c2cccc(-c3cc(Cl)cc(OS(C)(=O)=O)c3)c2)N=C1N (centres unmarked) [Example 59, 3′-{2-Amino-1-methyl-5-oxo-4-[4-(trifluoromethoxy)phenyl]-4,5-dihydro-1H-imidazol-4-yl}-5-chlorobiphenyl-3-ylmethanesulfonate] | 128 | – |
